The values that follow come from patent US6528042B1, “Compositions of flavonoids for use as cytoprotectants and methods of making and using them” (Galileo Laboratories, Inc., priority 1999, dated 2003).

Series [1] relates to Oxidatively competent cells. Briefly: SYTOX cell death assay in oxidatively competent cells treated with antimycin A. The following applies: for cell death when tested individually: highest concentration tested. In kind it is cell-based. Here is the method:
Oxidatively competent cells are prepared as described in Example 1. and Example 2.A and are seeded onto 96-well plates at 1×10^3/well or 2.5×10^3/well as passage 15. The cells are grown in DMEM with 10% FBS and 1.5 g/L sodium bicarbonate for 24 or 48 hours to reach 85% confluence. The cells are washed once with HBSS and then 100 μl of HBSS containing different concentration of AA (Sigma, Cat #A 8674) is added to the cells. AA is dissolved in DMSO to make a stock solution of 50 mM, then diluted with HBSS to 25, 12.5, 6.25, 3.125, and 1.56 μM for dose-response curves. The cells, with or without AA, are incubated at 37° C. in a 5% CO2 humidified incubator for 1 to 5 hours. The concentration of AA is chosen to induce 75% or 100% cell death as a screening dose to test the effect of agents to protect against AA- induced cell toxicity. The concentration of agents used for screening will be dependent upon the agents. Certain control groups contain 100 μl of HBSS only.
(§1) SYTOX Green nucleic acid stain is a high-affinity nucleic acid stain that easily penetrates cells with a compromised plasma membrane but will not cross the membrane of live cells. The nucleic acids of dead cells fluoresce bright green at 524 nm when excited with the 488 nm spectral source or with any other 450-500 nm source. […] In the cell viability assay chemical ischemia is created in cells and then cells are incubated with the SYTOX dye. The compound antimycin is used to simulate ischemia at the same time as stimulating the cells with forskolin. […] The assay is performed on cells grown in 96-well format allowing high throughput screening of compounds.
(§2) Compound(s) are mixed with the 1 μM SYTOX working solution and added to the washed cell culture wells. Fluorescence is measured at designated time points (488 nm excitation and 530 nm emission). All of the sample readings subtract the background readings, which is cell-free wells only containing HBSS buffer with SYTOX green dye. The data is compared to non-treated cells (control) and is expressed as mean±S.D. from 4 culture wells. SYTOX Green fluorescence units obtained from each group are corrected for basal fluorescence (cell-free wells with only HBSS and fluorescence reagent). Data are represented as mean±SD. A paired t-test is performed comparing treated groups (Toxin+Agent) with non-treated groups (Toxin only) after subtracting the control groups (HBSS only) for each data set. Comparisons among groups are statistically evaluated by two-tailed t-test (Graphpad Prism Software, version 2.0). Differences are considered significant at P<0.05.
Oxidatively competent cells were treated simultaneously with hesperetin, chrysin and 100 nM antimycin A2.C. The cells were treated with various low concentrations of hesperetin and various concentrations of chrysin (Sigma Chemical Co., cat. #C3018). Hesperetin, chrysin and antimycin A were mixed together before treating the cells. Cell viability was measured at time points up to 5 hours using SYTOX, as described in Example 2.F.
In experiments carried out in support of the invention, various concentrations of diosmin and alpha-tocopherol were tested for synergistic ability to ameliorate disruption of energy metabolism secondary to stress. Oxidatively competent cells were treated simultaneously with diosmin, alpha-tocopherol and antimycin A2.C. The cells were treated with various low concentrations of diosmin (Sigma Chemical Co., cat. #D3525) and various low concentrations of (+/−) alpha-tocopherol. Diosmin, alpha-tocopherol and antimycin were mixed together before treating cells. Cell viability was measured 4 hours after treatment using SYTOX. […] Likewise, the combination of disomin (11-100 μM) with 1.1 μg/ml (+/−) alpha tocopherol was synergistic. […] Diosmin alone provided no protection at a concentration of 100 μM. […] A combination of 100 μM diosmin and 11 μg/ml (+/−) alpha tocopherol was also synergistic. […]

Another series deals with GCL1 cells. Briefly: SYTOX cell death assay in GCL1 cells treated with antimycin A (chemical ischemia). In kind it is cell-based, rat hepatoma cells (fao) / human fibroblasts (W138) hybrid. The following applies: for reduction in cell death: control 82.9%.
Source text: At greater than 80% confluence, more than 80% of the cells participate in forming one or more phaselucent, spherical structures that are located between cells, termed bile canicular-like spaces. In contrast to the majority of cell lines maintained in culture which are fermentative, GCL1 cells, when at their maximal density and polarity, are highly oxidative (i.e., they can be readily killed by inhibitors of oxidative phosphorylation or electron transport uncouplers). […] These cells are amenable to use in high throughput screening (HTS) technology.
The cells, with or without AA, are incubated at 37° C. in a 5% CO2 humidified incubator for 1 to 5 hours. […] The concentration of agents used for screening will be dependent upon the agents. Certain control groups contain 100 μl of HBSS only.
as §1
Aliquot at 100 μl. This 10 mM stock is then diluted to 1 mM with DMSO and aliquoted at 25 μL. Both the 10 mM and the 1 mM are stored at −20° C. until use. […] Aliquot at 100 μl and store at −20° C. until use. iv.) HBSS-SYTOX-FORSKOLIN-ANTIMYCIN (H-S-F-A) solution: H-S-F-A solution is made up fresh prior to each assay in sterile 175 ml or 225 ml Falcon bottles. […]
Cells are grown in 96-well black plates (with or without clear bottoms) at a density of 1000 cells per well for 24 hours. The necessary number of 96-well plates containing the specific cell type are obtained and placed in the laminar flow safety cabinet. A sterile microtiter basin is filled with the appropriate volume of pre-warmed 1×HBSS. Using aseptic technique and an 8-channel aspirator, the media is carefully removed from the cells and replaced with 200 μl of 1×HBSS. This is done as quickly as possible to prevent the cells drying out. The plates are then placed in the humidified 37° C. incubators of the Biomek 2000 Side Loader. Four plates are washed at a time so as to minimize the time that the cells are sitting in 1×HBSS prior to addition of the H-S-A-compound test solution.
as §2
Hesperetin, diosmin, luteolin and quercetin were tested individually for their ability to counteract disruptions of normal energy metabolism. Flavonoids were commercially obtained, generally from Sigma Chemical Co., St. Louis, Mo., and/or Aldrich Chemical Co., Milwaukee, Wis.

For series [2] the following is noted: cited from earlier work; for abnormalities observed for a week: administered orally to mice at 100 mg/kg (U.S. Pat. No. 5,650,433).
Where [3] appears, read: flavonoid 25 μM, antimycin A 100 nM, 4 hours.
Setting [4] is: flavonoid 50 μM, antimycin A 100 nM, 4 hours.
Where [5] appears, read: flavonoid 100 μM, antimycin A 100 nM, 4 hours.
[6] abbreviates: flavonoid 200 μM, antimycin A 100 nM, 4 hours.
[7] abbreviates: flavonoid 400 μM, antimycin A 100 nM, 4 hours.

For the molecule `Cc1c(C)c2c(c(C)c1O)CCC(C)(CCCC(C)CCCC(C)CCCC(C)C)O2` (racemic) [(+/−) alpha-tocopherol, 2,5,7,8-tetramethyl-2-(4′,8′,12′-trimethyltridecyl)-6-chromanol], the protection entry in series [1] (10 μg/ml (+/−) alpha-tocopherol by itself) is given as “about 15%”. Besides, the “cell death when tested individually” value in series [1] is given as “over half of the cells died”.

As to `O=C(CO)[C@H](O)[C@H](O)CO` [ribulose], the “reduction in cell death” value in the series with GCL1 cells (1.25 mM ribulose by itself, 4 hours) was 4.4%; in the series with GCL1 cells (10 mM ribulose alone, 4 hours) it was 26.5%.

In the case of `O=c1cc(-c2ccccc2)oc2cc(O)cc(O)c12` [chrysin, 5,7-dihydroxy-2-phenyl-4H-1-benzopyran-4-one], the Cell Death in series [1] (60 μM chrysin alone, control 72.9%) was 50.1%.

With `O=c1cc(-c2ccc(O)c(O)c2)oc2cc(O)cc(O)c12` [Luteolin, 2-(3,4-Dihydroxyphenyl)-5,7-dihydroxy-4H-1-benzopyran-4-one], the “cytoprotective activity” value in the series on GCL1 cells (concentrations of about 60 μM and above) was “exhibited cytoprotective activity”. Moreover, the “Cell Death” value in the series with GCL1 cells (flavonoid 15.6 μM, antimycin A 100 nM, 4 hours) is recorded as 78.0% ± 0.9; with GCL1 cells (flavonoid 31.25 μM, antimycin A 100 nM, 4 hours), 74.5% ± 1.2; in the series on GCL1 cells (flavonoid 62.5 μM, antimycin A 100 nM, 4 hours), 69.0% ± 2.2; in the series with GCL1 cells (flavonoid 125 μM, antimycin A 100 nM, 4 hours) it was 53.7% ± 5.4; in the series with GCL1 cells (flavonoid 250 μM, antimycin A 100 nM, 4 hours), 33.4% ± 0.6. In addition, the “abnormalities observed for a week” value in series [2] is reported as “the same results were reported”.

As to `COc1ccc(-c2cc(=O)c3c(O)cc(O[C@@H]4O[C@H](CO[C@@H]5O[C@@H](C)[C@H](O)[C@@H](O)[C@H]5O)[C@@H](O)[C@H](O)[C@H]4O)cc3o2)cc1O` [Diosmin, reference compound], the “protection” value is listed as “not protective by itself” in series [1] (diosmin 3.3-100 μM by itself, 4 hours); “no protection” in series [1] (diosmin alone 100 μM); “not effective” in series [1] (diosmin by itself 33-100 μM). In the series with GCL1 cells (concentrations less than 400 μM), the “protective effect” value is reported as “ineffective”. The “Cell Death” value in the series with GCL1 cells (setting [3]) is 84.1% ± 1.6; with GCL1 cells (setting [4]), 84.9% ± 1.6; with GCL1 cells (setting [5]), 85.3% ± 0.6; with GCL1 cells (setting [6]), 85.2% ± 2.0; with GCL1 cells (setting [7]) it was 82.5% ± 2.6.

As for `O=c1c(-c2ccc(O)cc2)coc2cc(O)ccc12` [daidzein, 7-hydroxy-3-(4-hydroxyphenyl)-4H-1-benzopyran-4-one], the “cell death when tested individually” value in series [1] is listed as “over half of the cells died”.

`COc1ccc([C@@H]2CC(=O)c3c(O)cc(O[C@@H]4O[C@H](CO[C@@H]5O[C@@H](C)[C@H](O)[C@@H](O)[C@H]5O)[C@@H](O)[C@H](O)[C@H]4O)cc3O2)cc1O` [hesperidin, (S)-7-[[6O-(6-Deoxy-α-L-mannopyranosyl)-β-D-glucopyranosyl]oxy]-2,3-dihydro-5-hydroxy-2-(3-hydroxy-4-methoxyphenyl)-4H-1-benzopyran-4-one]: in series [2], the “abnormalities observed for a week” value is listed as “the same results were reported”. The toxicity entry in series [2] (orally administered to a mouse at 1000 mg/kg (U.S. Pat. No. 5,763,414)) is on record as “no toxicity”. Further, in series [2] (tests using mice), the “effects on liver function” value is recorded as “no adverse effects on liver function” and the toxicity or mitogenicity entry is given as “little toxicity or mitogenicity”.

As for `COc1ccc(-c2coc3cc(O)cc(O)c3c2=O)cc1` [biochanin A, 5,7-dihydroxy-4′-methoxyiso-flavone], the “cell death when tested individually” value in series [1] is “about half of the cells died”.

Regarding `O=c1c(O)c(-c2ccc(O)c(O)c2)oc2cc(O)cc(O)c12` [Quercetin, 2-(3,4-Dihydroxyphenyl)-3,5,7-trihydroxy-4H-1-benzopyran-4-one], the “protective activity” value in the series with GCL1 cells (concentrations of 25 μM and above) is on record as “protective activity is apparent”. Also, the “Cell Death” value with GCL1 cells (setting [3]) was 68.1% ± 1.7; in the series on GCL1 cells (setting [4]), 57.1% ± 2.4; in the series on GCL1 cells (setting [5]) it was 22.0% ± 2.2; in the series with GCL1 cells (setting [6]), 0.0% ± 0.9; in the series on GCL1 cells (setting [7]) it was 1.0% ± 0.5.

With `NCC(=O)O` [glycine, aminoacetic acid], the protection with GCL1 cells (100 μM glycine alone, 4 hours, control cell death 82.1%) came out at 40.8%.

As for `Cc1c(O)cc2c(c1C)O[C@](C)(CCC[C@H](C)CCC[C@H](C)CCCC(C)C)CC2` [gamma-tocopherol, 3,4-dihydro-2,7,8-trimethyl-2-(4,8,12-trimethyltridecyl)-2H-1-benzyopyran-6-ol], the “protection” value in series [1] (gamma-tocopherol 0.03-0.3 μg/ml by itself) is on record as “not protective by itself”.

The molecule `Nc1ncnc2c1ncn2[C@@H]1O[C@H](CO)[C@@H](O)[C@H]1O` [adenosine, 9-β-D-ribofuranosyl-9H-purin-6-amine] showed a protection in the series on GCL1 cells (11 μM adenosine alone) of 17.9%.

The molecule `C[N+](C)(C)CC(O)CC(=O)[O-].O=C(O)C(O)C(O)C(=O)O` (centres unmarked) [carnitine tartate, carnitine tartrate] returned a Cell Death in the series on GCL1 cells (10 mM carnitine tartrate alone, 4 hours, control 97.4%) of 59.5%.

Regarding `Cc1c(C)c2c(c(C)c1O)CC[C@@](C)(CCC[C@H](C)CCC[C@H](C)CCCC(C)C)O2` (relative stereo) [alpha-tocopherol, [2R-2R*(4R*,8R*)]-3,4-dihydro-2,5,7,8-tetramethyl-2-(4,8,12-trimethyltridecyl)-2H-1-benzopyran-6-ol], the “cell death when tested individually” value in series [1] is given as “about half of the cells died”.
